Reference: patent EP0048954A2, “Beta-lactam compounds, process for the preparation thereof and intermediate products for the preparation thereof” (SAGAMI CHEMICAL RESEARCH CENTER, priority 1980, dated 1982)
Values after ≈ are worked out from the molar mass of the structure shown. Values joined by “and” are separate entries in the source; they are usually repeats but may differ in a detail not shown here. Identical values can stand only once.

What was measured:
Test in all cases: Antibacterial activity, minimum inhibition concentration (method of The Chemotherapy Association, Japan)
Format in all cases: cell-based
Proteus rettgeri NIH-96 = settings: for minimum inhibition concentration: strain I: Proteus rettgeri NIH-96; for MIC: Providencia rettgeri, NIH96, strain I: Proteus rettgeri NIH-96, read-out: minimum inhibition concentration
From the text: (§1) The abbreviations A to P will be used in the following Tables 2 to 8.
(§2) Test results are shown in terms of the minimum inhibition concentration (µg/mℓ.) in the following Tables 2 to 8.

Proteus vulgaris OX-19 = settings: Proteus vulgaris, OX19, strain H: Proteus vulgaris OX-19; read-out: minimum inhibition concentration
From the text: as §1, §2

[1] = tested on: Bacillus subtilis ATCC 6633; settings: for minimum inhibition concentration: strain B: Bacillus subtilis ATCC 6633; for MIC: Bacillus subtilis, ATCC6633, strain B: Bacillus subtilis ATCC 6633, read-out: minimum inhibition concentration
Procedure: (§3) Antibacterial activities of the compounds according to this invention, which had been prepared in the preceding Examples, were measured according to the method prescribed by The Committee of Amendment of "The method for measurement of the minimum inhibition concentration", The Chemotherapy Association, Japan (See Chemotherapy, Vol. 22, No. 6, pp. 1126 - 1128 (1974) and Vol. 29, No. 1, pp. 76 - 79 (1981)).
as §1, §2

[2] = tested on: Citrobactor freundii NIH-10018 -68; settings: strain O: Citrobactor freundii NIH-10018 -68; read-out: minimum inhibition concentration
Procedure: as §3, §1, §2

[3] = tested on: Enterobactor cloacae NCTC-9394; settings: strain N: Enterobactor cloacae NCTC-9394; for MIC: read-out: minimum inhibition concentration
Procedure: as §3, §1, §2

Escherichia coli NIHJC-2 = settings: for MIC: Escherichia coli, NIHJC2, strain L: Escherichia coli NIHJC-2, read-out: minimum inhibition concentration
Procedure: as §3, §1, §2

Escherichia coli NIHJ = settings: strain K: Escherichia coli NIHJ; for MIC: Escherichia coli, read-out: minimum inhibition concentration
Procedure: as §3, §1, §2

Klebsiella pneumoniae = settings: strain C: Klebsiella pneumoniae; for MIC: Klebsiella pneumoniae, read-out: minimum inhibition concentration
Procedure: as §3, §1, §2

[4] = tested on: Proteus mirabillis B-30-2 IFO-3849; settings: strain G: Proteus mirabillis B-30-2 IFO-3849; for MIC: read-out: minimum inhibition concentration
Procedure: as §3, §1, §2

Proteus morgani Kono = settings: strain J: Proteus morgani Kono; for MIC: read-out: minimum inhibition concentration
Procedure: as §3, §1, §2

[5] = tested on: Pseudomonas aeruginosa NCTC-10490; settings: for MIC: Pseudomonas aeruginosa, NCTC10490, strain M: Pseudomonas aeruginosa NCTC-10490, read-out: minimum inhibition concentration; for minimum inhibition concentration: strain M: Pseudomonas aeruginosa NCTC-10490
Procedure: as §3, §1, §2

[6] = tested on: Salmonella typhimurium 3173; settings: Salmonella enterica, TYPHIMURIUM, strain D: Salmonella typhimurium 3173; read-out: minimum inhibition concentration
Procedure: as §3, §1, §2

Serratia marcescens 1023 = settings: for MIC: Serratia marcescens, 1023, strain E: Serratia marcescens 1023, read-out: minimum inhibition concentration
Procedure: as §3, §1, §2

[7] = tested on: Serratia marcescens IFO-3736; settings: for MIC: Serratia marcescens, IFO3736, strain F: Serratia marcescens IFO-3736, read-out: minimum inhibition concentration; for minimum inhibition concentration: strain F: Serratia marcescens IFO-3736
Procedure: as §3, §1, §2

[8] = tested on: Staphylococcus aureus 6538-P; settings: strain A: Staphylococcus aureus 6538-P; read-out: minimum inhibition concentration
Procedure: as §3, §1, §2

## CO/N=C(\C(=O)N[C@@H]1C(=O)N2C(C(=O)O)=C(COC(C)=O)CS[C@H]12)c1csc(N)n1 [Cefotaxime, reference compound]
Proteus rettgeri NIH-96
  minimum inhibition concentration: <0.00625 µg/mL
Proteus rettgeri NIH-96; listed as Cefota-xime
  minimum inhibition concentration: <0.025 µg/mL
Proteus vulgaris OX-19
  MIC: < 0.025 µg/mL
[1]
  minimum inhibition concentration: 6.25 µg/mL (≈ 13.7 µM)
[2]
  MIC: 0.2 µg/mL (≈ 0.439 µM)
[3]
  minimum inhibition concentration: 0.2 µg/mL (≈ 0.439 µM)
  MIC: 0.39 µg/mL (≈ 0.856 µM)
[3]; listed as Cefota-xime
  minimum inhibition concentration: 0.2 µg/mL (≈ 0.439 µM)
Escherichia coli NIHJC-2
  MIC: 0.2 µg/mL (≈ 0.439 µM)
Escherichia coli NIHJC-2; strain L: Escherichia coli NIHJC-2
  minimum inhibition concentration: 0.1 µg/mL (≈ 0.22 µM)
Escherichia coli NIHJ
  minimum inhibition concentration: <0.00625 µg/mL
Escherichia coli NIHJ; listed as Cefota-xime
  minimum inhibition concentration: <0.025 µg/mL
Klebsiella pneumoniae
  MIC: 0.1 µg/mL (≈ 0.22 µM)
  minimum inhibition concentration: 0.05 µg/mL (≈ 0.11 µM)
[4]
  minimum inhibition concentration: 0.025 µg/mL (≈ 0.0549 µM)
[4]; listed as Cefota-xime
  minimum inhibition concentration: 0.1 µg/mL (≈ 0.22 µM)
Proteus morgani Kono
  minimum inhibition concentration: 0.39 µg/mL (≈ 0.856 µM)
Proteus morgani Kono; listed as Cefota-xime
  minimum inhibition concentration: 1.56 µg/mL and 0.78 µg/mL
[5]
  MIC: 0.78 µg/mL (≈ 1.71 µM)
  minimum inhibition concentration: 0.39 µg/mL (≈ 0.856 µM)
[5]; listed as Cefota-xime
  minimum inhibition concentration: 0.39 µg/mL (≈ 0.856 µM)
[6]
  MIC: 0.1 µg/mL (≈ 0.22 µM)
Serratia marcescens 1023
  MIC: 50 µg/mL (≈ 110 µM)
Serratia marcescens 1023; strain E: Serratia marcescens 1023
  minimum inhibition concentration: 100 µg/mL (≈ 220 µM)
[7]
  MIC: 0.2 µg/mL (≈ 0.439 µM)
  minimum inhibition concentration: 0.2 µg/mL (≈ 0.439 µM)
[7]; listed as Cefota-xime
  minimum inhibition concentration: 0.39 µg/mL (≈ 0.856 µM)
[8]
  MIC: 0.39 µg/mL (≈ 0.856 µM)

## CC(=O)OCC1=C(C(=O)O)N2C(=O)C(NC(=O)C(=C(Cl)Cl)c3ccc(C)cc3)[C@H]2SC1 (stereo partly shown) [Compound 28, 7-[2-dichloromethylene-2-(4-methylphenyl)acetamido]-3-acetoxymethyl-3-cephem-4-carboxylic acid]
Proteus rettgeri NIH-96
  MIC: 3.12 µg/mL (≈ 6.44 µM)
Proteus vulgaris OX-19
  MIC: 100 µg/mL (≈ 206 µM)
[1]
  MIC: 3.12 µg/mL (≈ 6.44 µM)
[2]
  MIC: > 100 µg/mL
[3]
  MIC: > 100 µg/mL
Escherichia coli NIHJC-2
  MIC: > 100 µg/mL
Escherichia coli NIHJ
  MIC: > 100 µg/mL
Klebsiella pneumoniae
  MIC: > 100 µg/mL
[4]
  MIC: > 100 µg/mL
Proteus morgani Kono
  MIC: > 100 µg/mL
[5]
  MIC: 50 µg/mL (≈ 103 µM)
[6]
  MIC: > 100 µg/mL
Serratia marcescens 1023
  MIC: 6.25 µg/mL (≈ 12.9 µM)
[7]
  MIC: > 100 µg/mL
[8]
  MIC: > 100 µg/mL

## Cn1nnnc1SCC1=C(C(=O)O)N2C(=O)C(NC(=O)C(=C(Cl)Cl)c3csc(N)n3)C2SC1 (stereo not drawn) [6-(2), 7-[2-dichloromethylene-2-(2-aminothiazol-4-yl)-acetamido]-3-(l-methyl-lH-tetrazol-5-yl)thiomethyl-3-cephem-4-carboxylic acid]
Proteus rettgeri NIH-96
  MIC: < 0.025 µg/mL
Proteus vulgaris OX-19
  MIC: 0.1 µg/mL (≈ 0.182 µM)
[1]
  minimum inhibition concentration: 6.25 µg/mL (≈ 11.4 µM)
[2]
  MIC: 6.25 µg/mL (≈ 11.4 µM)
[3]
  MIC: 1.56 µg/mL (≈ 2.84 µM)
Escherichia coli NIHJC-2
  MIC: 12.5 µg/mL (≈ 22.8 µM)
Escherichia coli NIHJ
  MIC: < 0.025 µg/mL
Klebsiella pneumoniae
  MIC: 12.5 µg/mL (≈ 22.8 µM)
[4]
  MIC: 12.5 µg/mL (≈ 22.8 µM)
Proteus morgani Kono
  MIC: 6.25 µg/mL (≈ 11.4 µM)
[5]
  MIC: 3.12 µg/mL (≈ 5.69 µM)
[6]
  MIC: 6.25 µg/mL (≈ 11.4 µM)
Serratia marcescens 1023
  MIC: 12.5 µg/mL (≈ 22.8 µM)
[7]
  MIC: 25 µg/mL (≈ 45.5 µM)
[8]
  MIC: 0.78 µg/mL (≈ 1.42 µM)

## CC1(C)S[C@@H]2C(NC(=O)C(=C(Cl)Cl)c3cccs3)C(=O)N2[C@H]1C(=O)O (stereo partly shown) [Compound 37, 6-[2-dichloromethylene-2-(2-thienyl)acetamido]-penicillanic acid]
Proteus rettgeri NIH-96
  MIC: 0.25 µg/mL (≈ 0.593 µM)
Proteus vulgaris OX-19
  MIC: 50 µg/mL (≈ 119 µM)
[1]
  MIC: 1.56 µg/mL (≈ 3.7 µM)
[2]
  MIC: > 100 µg/mL
[3]
  MIC: 100 µg/mL (≈ 237 µM)
Escherichia coli NIHJC-2
  MIC: > 100 µg/mL
Escherichia coli NIHJ
  MIC: 0.78 µg/mL (≈ 1.85 µM)
Klebsiella pneumoniae
  MIC: > 100 µg/mL
[4]
  MIC: > 100 µg/mL
Proteus morgani Kono
  MIC: > 100 µg/mL
[5]
  MIC: 6.25 µg/mL (≈ 14.8 µM)
[6]
  MIC: > 100 µg/mL
Serratia marcescens 1023
  MIC: 0.05 µg/mL (≈ 0.119 µM)
[7]
  MIC: > 100 µg/mL
[8]
  MIC: 0.1 µg/mL (≈ 0.237 µM)

## CC(=O)OCC1=C(C(=O)O)N2C(=O)C(NC(=O)C(=C(Cl)Cl)c3ccc(NC(=O)OC(C)(C)C)cc3)C2SC1 (stereo not shown) [4-(1), 7-[2-dichloromethylene-2-(4-tert-butoxycarbonyl-aminophenyl)acetamido]-3-acetoxymethyl-3-cephem-4-carboxylic acid]
Proteus rettgeri NIH-96
  MIC: 6.25 µg/mL (≈ 10.7 µM)
Proteus vulgaris OX-19
  MIC: > 100 µg/mL
[1]
  MIC: 6.25 µg/mL (≈ 10.7 µM)
[2]
  MIC: > 100 µg/mL
[3]
  MIC: > 100 µg/mL
Escherichia coli NIHJC-2
  MIC: > 100 µg/mL
Escherichia coli NIHJ
  MIC: 6.25 µg/mL (≈ 10.7 µM)
Klebsiella pneumoniae
  MIC: > 100 µg/mL
[4]
  MIC: > 100 µg/mL
Proteus morgani Kono
  MIC: > 100 µg/mL
[5]
  MIC: 50 µg/mL (≈ 85.3 µM)
[6]
  MIC: > 100 µg/mL
Serratia marcescens 1023
  MIC: 6.25 µg/mL (≈ 10.7 µM)
[7]
  MIC: > 100 µg/mL
[8]
  MIC: 0.39 µg/mL (≈ 0.665 µM)
